Results on two compounds are retold here after patent US12002595B2, “Separation of metal ions by liquid-liquid extraction” (priority 2016, dated 2024).

For data set [1] the following is noted: Pb^2+; 25° C.; cited from earlier work.
The nature of data set [2]: Extraction by HDEHP as a function of pH with hold-back reagent. The protocol: All liquid-liquid extractions were conducted using a 1:1 organic to aqueous phase ratio for a total volume of 1 mL. Samples were pH adjusted by HNO3 and prepared for a final concentration of 1.0 M sodium lactate, 40 mM of hold-back reagent (160 mM in the case of the HOPO monomer), and 2.0 M Na^+. The concentration of the trivalent f-element was dependent on the availability and radioactivity of the isotopes. The organic phase consisted of 0.5 M HDEHP in kerosene. All samples were incubated in a thermostatic shaker held at 28° C. and rocked at 280 rpm for 90 minutes. To ensure complete phase separation, samples were left overnight at room temperature to equilibrate. Radioactive samples were analyzed by liquid scintillation counting (LSC). The analytical protocol consisted of diluting 10 uL of radioactive sample into 10 mL of Ultima Gold™. Ultima Gold™ is a commercially available analytical reagent commonly used for LSC. The resulting analytical samples were shaken for 10 min prior to counting on a Perkin-Elmer Packard Tri-Carb instrument (model B4430).
Data was analyzed by the distribution ratio (Dm), separation factor (SFm1/m2) and extraction percentage (% Extraction) as defined by Equations (6), (7) and (8), respectively. Equation (8) uses concentrations of the metal in each phase since the aqueous: organic ratio was 1. Both the organic and aqueous phases were analyzed after liquid-liquid extraction and phase separation. These calculation methods rely on the assumptions that no metal (M) is lost to sorption or precipitation and that no volume variation occurred during the mass transfer between the aqueous and organic phases.
In FIG. 23, aqueous phase: [ligand]=40 mM, buffer sodium lactate/sodium nitrate. Organic phase: [HDEHP]=0.5 M, kerosene diluent. T=25° C. O/A=1, one contact. Initial metal concentrations: [Ac-225]=0.4 nM, [Am-243]=40.4 nM, or [Gd]=500 μM (spiked with Gd-153 for LSC measurements).
In FIG. 17, aqueous phase: [ligand]=40 mM, buffer sodium lactate/sodium nitrate, organic phase: [HDEHP]=0.5 M, kerosene diluent. T=25° C. O/A=1, one contact. Initial metal concentrations: [Ac-225]=0.4 nM, [Am-243]=40.4 nM, or [Gd]=500 μM (spiked with Gd-153 for LSC measurements). Separation factor=ratio M1/M2 in the final organic phase/ratio M1/M2 in the initial aqueous phase. […]

Data set [3] is described as follows: Back-extraction from 30% TBP in kerosene (modified PUREX) with 343HOPO. To be noted: 1 mM 343HOPO, up to 8 M HNO3. The protocol: Dotted lines: separation factor U/Pu. Organic phase: 30% TBP in kerosene.
For Example 20—Example 24, pH measurements were performed with a glass electrode (Metrohm-Micro Combi-response to [H+]) calibrated at 25.0° C. using three NIST standards. Extraction samples were analyzed by liquid scintillation counting (LSC). The distribution coefficient, D(M), of a given metal, M, is defined in Eq. 1, where [M]organic and [M]aqueous are the respective total concentrations of M in the organic and aqueous layers, after extraction. Both concentrations are proportional to the volumetric activity (in Bq/L) determined by LSC. The separation factor, SFM1/M2, between two metals, M1 and M2, and extraction yield were calculated according to Eq. 2 and Eq. 3, respectively.
In a typical experiment, the solvent (extractant diluted in kerosene) was pre-conditioned by shaking one volume of solvent with three volumes of aqueous phase (typically HNO3) at room temperature for 1 h, thrice. […] Samples were counted for at least 6 min and results were background subtracted. […] Mixtures of ^249Bk and ^249Cf were analyzed using α/β discrimination and energy windows were set to 0-50 keV for low-energy β particles of ^249Bk and 50-1000 keV for α particles of ^249Cf. ^243Am and ^225Ac samples were counted at secular equilibrium.

A short description of data set [4]: Extraction by HDEHP at constant pH with 3,4,3-LI(1,2-HOPO) as hold-back reagent. To be noted: 1 mM ligand, 0.1 M HNO3/1.9 M NaNO3; for % Extraction: extraction of ^243Americium(III). The protocol: In FIG. 26, aqueous phase: [ligand]=1 mM, buffer 0.1 M HNO3/1.9 M NaNO3. Organic phase: HDEHP diluted in kerosene. [HDEHP]=0.05, 0.10, 0.25, 0.50, 1.0, or 2.0 M. T=25° C. Volume organic phase/Volume aqueous phase=1. Initial metal concentrations: [Pu-242]=10 μM, [Am-243]=0.25 μM, or [Gd-153]=0.16 nM. Phases analyzed after one contact. Contact time: 30 min.
The separation factor values given here must been seen as lower limit since the extraction of Pu(IV) is near zero.
In FIG. 28, aqueous phase: [ligand]=1 mM, buffer 0.1 M HNO3/1.9 M NaNO3. Organic phase: HDEHP diluted in kerosene. [HDEHP]=0.05, 0.10, 0.25, 0.50, 1.0, or 2.0 M. T=25° C. Volume organic phase/Volume aqueous phase=1. Initial metal concentrations: [Am-243]=0.25 μM, or [Gd-153]=0.16 nM. Phases analyzed after one contact. Contact time: 30 min. Corresponding separation factors (SF) are given on the right Y-axis. SF Gd/Am=Ratio [Gd]/[Am] in the final organic phase/Ratio [Gd]/[Am] in the initial aqueous solution.

For data set [5] the following is noted: Gd^3+; 25° C.; cited from earlier work.
The conditions of data set [6]: UO2^2+; 25° C.; cited from earlier work.
Data set [7] is described as follows: Persistence of the metal complex versus acidity. The data set is classed as binding. To be noted: Hf^4+.
Where [8] appears, read: highest value reached, HDEHP/343HOPO-HNO3 system.

Like-named read-outs stand apart in the source and are kept apart here.

On to `O=C(NCCCN(CCCCN(CCCNC(=O)c1cccc(=O)n1O)C(=O)c1cccc(=O)n1O)C(=O)c1cccc(=O)n1O)c1cccc(=O)n1O` [3,4,3-LI(1,2-HOPO)], for which the “log βML” value is 18.0 ± 0.2 in data set [1], 20.5 ± 0.1 in data set [5] and 18.0 ± 0.4 in data set [6]. The SFAc/Am is recorded as 130,000 in data set [2] (setting [8]); 3.99 * 10^2 in data set [2] (pH 0.9 (±0.1)); 9.06 * 10^3 in data set [2] (pH 1.5 (±0.1)); 8.13 * 10^4 in data set [2] (pH 3.5 (±0.1)); 1.28 * 10^5 in data set [2] (pH 4.0 (±0.1)). The SFAc/Gd is given as 1,300,000 in data set [2] (setting [8]), 6.55 * 10^2 in data set [2] (pH 1.5 (±0.1)), 4.61 * 10^5 in data set [2] (pH 3.5 (±0.1)) and 1.33 * 10^6 in data set [2] (pH 4.0 (±0.1)). Further, the extraction of actinium entry in data set [2] (pH higher than 1.5, 40 mM ligand, 0.5 M HDEHP) is “quantitative extraction”. The SFAc/Pu entry in data set [2] (single step, initial Pu/Ac ratio ~10,000 mol/mol, 40 mM chelator, 0.5 M HDEHP) is given as “at least 1,000,000”. In addition, the “separation factor between Ac and relevant metal impurities” value in data set [2] (summary statement) is 10^6. In addition, the SFU/Pu in data set [3] is ≤ 5,800. Moreover, the “SF Gd^3+/Am^3+” value in data set [4] (HDEHP 0.05 M) is on record as 24.1; in data set [4] (HDEHP 0.10 M) it was 23.3; in data set [4] (HDEHP 0.25 M), 25.3; in data set [4] (HDEHP 0.50 M), 27.0; in data set [4] (HDEHP 1.00 M) it was 45.6; in data set [4] (HDEHP 2.00 M) it was 99.8. Further, the “% Extraction” value was 0.21% in data set [4] (HDEHP 0.05 M); 1.32% in data set [4] (HDEHP 0.10 M); 10.08% in data set [4] (HDEHP 0.25 M); 30.27% in data set [4] (HDEHP 0.50 M); 49.98% in data set [4] (HDEHP 1.00 M); 57.29% in data set [4] (HDEHP 2.00 M). Besides, in data set [7], the “acidity range over which the ligand stays bound” value was “from pH 8 to strongly acidic solutions (at least 6 M HCl)”.

As for `O=C(O)CN(CCN(CC(=O)O)CC(=O)O)CCN(CC(=O)O)CC(=O)O` [DTPA, Diethylenetriaminepentaacetic acid, reference compound], the SFAm/Ac result in data set [2] (HDEHP/DTPA-HNO3 system) is “below 10”. For the same compound, the SFGd/Ac in data set [2] (HDEHP/DTPA-HNO3 system) is given as < 5,300. Also, the “maximum metal extraction of Ac(III)” value in data set [2] (around pH 1.5) came to 49%. For the same compound, in data set [2] (at pH 4), the “extraction of Ac(III)” value is recorded as “less than 10%”. In addition, the SFAc/Gd in data set [2] (pH 0.8 (±0.1)), in data set [2] (pH 1.5 (±0.1)), in data set [2] (pH 3.5 (±0.1)) and in data set [2] (pH 4.0 (±0.1)) was <10^−3 each time. The SFAc/Am is 5.83 * 10^−2 in data set [2] (pH 0.9 (±0.1)), 2.70 * 10^−1 in data set [2] (pH 1.5 (±0.1)), 6.86 * 10^−2 in data set [2] (pH 3.5 (±0.1)) and 1.11 * 10^−1 in data set [2] (pH 4.0 (±0.1)).
